# Experimental data taken from US20080051350A1, “Therapeutic Use for a Group of Sulphated Polysaccharides” (Bioiberica, S.A., priority 2004, published 2008).
# Marks after values point to notes of the source that are not given here.
# Assays:
# Type in all cases: cell-based
# [1] = tested on: Human articular chondrocytes; test: Synthesis of extracellular aggrecans determined by incorporation of 35S in primary culture of human chondrocytes in agarose gel; details: for 35S incorporated into the aggrecans associated with the cells / 35S incorporated into the inter-territorial matrix's aggrecans / 35S incorporated into the re-synthesised aggrecans (total): 48 h
# Experimental: Human articular chondrocytes were isolated following the methods described by W. T. Green Jr. (Clin. Orthop., 75, 248-260 (1971)) and K. E. Kuettner et al. (J. Cell. Biol., 93, 743-750 (1982)).
# These chondrocytes were cultured in an agarose gel following the method described by P. D. Benya et al. (Cell, 30, 215-224, (1982)), and modified by G. Verbruggen et al. (Clin. Exp. Rheumatol., 8, 371-378 (1990)) and by M. Cornelissen et al. (J. Tiss. Cult. Meth., 15, 139-146 (1993)).
# The synthesis of aggrecans was determined by the incorporation of ^35S, using labelled sodium sulphate Na2^35SO4 as radioactive precursor. After two weeks of culture, 10 μCi/mL of radio-labelled precursor were introduced in the culture medium for 48 h, as was the compound to be assayed (inulin polysulphate in Chemical Example 1) at different concentrations (0.0, 0.1, 0.5, 1.0, 5.0 μg/mL).
# The synthesised ^35S aggrecans once again partially accumulated in the intercellular agarose matrix or else were released in the incubation medium.
# Once the incubation period ended, the agarose gel was mechanically broken down and subsequently digested by means of 3 mL of a 50 U/mL […] solution in a 0.067 M phosphate buffer, at pH 6.0, in the presence of proteinase inhibitors.
# The suspension thus produced was centrifuged; the supernatant containing the inter-territorial matrix's ^35S aggrecans and the incubation medium containing the ^35S aggrecan metabolites released in the extracellular matrix were subsequently united by means of chromatography.
# The residue, which contained the chondrocytes and the associated ^35S aggrecans, was treated for 48 hours with 1 mL of a 4.0 M guanidium chloride solution in a 0.05M acetate buffer at pH 5.8 containing the proteinase inhibitors.
# The purpose of this operation is to extract the ^35S aggrecans associated with the cells. The solution produced was centrifuged in order to separate the cells from the supernatant, which was subsequently separated by means of chromatography. The chromatography operations for the different fractions produced were performed on Sephadex G25 gel in a phosphate buffer pH 6.8 containing 0.01 M of Na2SO4, in order to separate the ^35S aggrecans from the free Na2^35SO4.
# The radioactivity of each of the macromolecular eluants produced was measured and related to the number of chondrocytes contained in the initial culture, expressed in pg of ^35SO4 incorporated into the aggrecans, per million chondrocytes per hour.
# [2] = tested on: human articular chondrocytes treated with interleukin-1 (IL-1); test: Aggrecans associated with IL-1-treated chondrocytes, measured by immunocytochemistry / flux cytometry; details: for Mean fluorescence intensity in the chondrocytes after labelling of aggrecan, M ± SD: one week of culture
# Experimental: The human articular chondrocytes were isolated and cultured following the previously described methods.
# The accumulation of aggrecans associated with the chondrocytes was measured, after a week of culture, by means of the immunocytochemistry technique described by L. Wang et al. (Osteoarthritis Cart., 9, 248-260 (2001)). The chondrocytes were treated with interleukin-1 (IL-1) in order to simulate a situation of inflammation and catabolism. The inulin polysulphate in Chemical Example 1 was added jointly with IL-1.
# Once the incubation period ended, the chondrocytes were released from the agarose gel following the described method. The chondrocytes and the associated aggrecans were studied by means of flux cytometry using monoclonal antibodies specifically directed against the aggrecans' proteic part.
# [3] = tested on: rat chondrosarcoma cell line called LTC; test: Inhibition of aggrecan degradation induced by IL-1α (Western Blot, anti-aggrecan antibody G1 / NITGE); details: 100 μg/mL, in the presence or not of IL-1α (10 ng/mL), 4 days, FIG. 1
# Experimental: The assays were performed on chondrocyte cultures from a rat chondrosarcoma cell line called LTC.
# The LTC cells were kept in a monolayer culture in a Gibco DMEM medium (Dulbecco's Modification of Eagle's Medium) (containing 4.5 g/L of glucose) supplemented with sodium bicarbonate (3.7 g/L), glutamine (2 mM), ascorbic acid (50 mg/L), gentamicin (50 mg/L), and bovine fetal serum Hyalone (10%), at pH 7.4.
# The confluent LTC cell cultures were trypsinised and 40,000 cells per 0.5 mL of culture were seeded in 48-well plates. They were maintained for 5 days, during which time they deposited 15-30 μg of glycosaminoglycans (GAG) in each well.
# The medium was separated, the cell membranes were washed by adding 5×1 mL of a catabolic medium {DMEM+4.5 g/L glucose supplemented with sodium bicarbonate (3.7 g/L), glutamine (2 mM), and 10 ng/mL of IL-1α (interleukin-1α) at pH 7.4). […]
# For the Western Blot, 20 μL of 50 mM tris-acetate at pH 7.3 were added to each well. […] 25 μL-fractions of the supernatant were separated by electrophoresis (gel gradient 8-12% SDS PAGE) and analysed by means of a Western Blot using anti-aggrecan antibody G1. […] The antiserum was used at a 1:5,000 dilution and the peroxidase-conjugated goat anti-(rabbit IgG) was detected by means of the Amersham ECL Kit.
# [4] = Donor F45, IL-1 + IPS 0.5 μg/mL
# [5] = Donor F45, IL-1 + IPS 1.0 μg/mL
# [6] = Donor F45, IL-1 + IPS 2.5 μg/mL
# [7] = Donor M32, IL-1 + IPS 1.0 μg/mL
# [8] = Donor M32, IL-1 + IPS 2.5 μg/mL
# [9] = Donor M32, IL-1 + IPS 5.0 μg/mL
substance,measurement,setting,value
Inulin Polysulphate Sodium Salt [IPS],Concentration of optimum activity on aggrecan synthesis,"[1]; 35S incorporation, concentrations 0.1-5.0 μg/mL tested",about 0.5 μg/mL
same,% Total: aggrecans associated with the cells with respect to the total quantity of aggrecans,[1]; IPS 0.1 μg/mL,23.5%
same,% Total: inter-territorial matrix's aggrecans with respect to the total quantity of aggrecans,[1]; IPS 0.1 μg/mL,66.2%
same,% Total: re-synthesised aggrecans with respect to the total quantity of aggrecans,[1]; IPS 0.1 μg/mL,100%
same,"% change with respect to the non-treated control, aggrecans associated with the cells",[1]; IPS 0.1 μg/mL,15.1%
same,"% change with respect to the non-treated control, re-synthesised aggrecans (total)",[1]; IPS 0.1 μg/mL,2.9%
same,"% change with respect to the untreated control, inter-territorial matrix's aggrecans",[1]; IPS 0.1 μg/mL,1.4%
same,35S incorporated into the aggrecans associated with the cells,[1]; IPS 0.1 μg/mL,"2,737 pg ^35S/10^6 cells/h"
same,35S incorporated into the inter-territorial matrix's aggrecans,[1]; IPS 0.1 μg/mL,"7,818 pg ^35S/10^6 cells/h"
same,35S incorporated into the re-synthesised aggrecans (total),[1]; IPS 0.1 μg/mL,"11,756 pg ^35S/10^6 cells/h"
same,% Total: aggrecans associated with the cells with respect to the total quantity of aggrecans,[1]; IPS 0.5 μg/mL,18.4%
same,% Total: inter-territorial matrix's aggrecans with respect to the total quantity of aggrecans,[1]; IPS 0.5 μg/mL,70.7%
same,% Total: re-synthesised aggrecans with respect to the total quantity of aggrecans,[1]; IPS 0.5 μg/mL,100%
same,"% change with respect to the non-treated control, aggrecans associated with the cells",[1]; IPS 0.5 μg/mL,28.8* %
same,"% change with respect to the non-treated control, re-synthesised aggrecans (total)",[1]; IPS 0.5 μg/mL,51.5* %
same,"% change with respect to the untreated control, inter-territorial matrix's aggrecans",[1]; IPS 0.5 μg/mL,60.6%
same,35S incorporated into the aggrecans associated with the cells,[1]; IPS 0.5 μg/mL,"3,064* pg ^35S/10^6 cells/h"
same,35S incorporated into the inter-territorial matrix's aggrecans,[1]; IPS 0.5 μg/mL,"12,383 pg ^35S/10^6 cells/h"
same,35S incorporated into the re-synthesised aggrecans (total),[1]; IPS 0.5 μg/mL,"17,312* pg ^35S/10^6 cells/h"
same,% Total: aggrecans associated with the cells with respect to the total quantity of aggrecans,[1]; IPS 1.0 μg/mL,17.9%
same,% Total: inter-territorial matrix's aggrecans with respect to the total quantity of aggrecans,[1]; IPS 1.0 μg/mL,70.7%
same,% Total: re-synthesised aggrecans with respect to the total quantity of aggrecans,[1]; IPS 1.0 μg/mL,100%
same,"% change with respect to the non-treated control, aggrecans associated with the cells",[1]; IPS 1.0 μg/mL,11.9%
same,"% change with respect to the non-treated control, re-synthesised aggrecans (total)",[1]; IPS 1.0 μg/mL,33.7* %
same,"% change with respect to the untreated control, inter-territorial matrix's aggrecans",[1]; IPS 1.0 μg/mL,41.2* %
same,35S incorporated into the aggrecans associated with the cells,[1]; IPS 1.0 μg/mL,"2,662 pg ^35S/10^6 cells/h"
same,35S incorporated into the inter-territorial matrix's aggrecans,[1]; IPS 1.0 μg/mL,"10,887* pg ^35S/10^6 cells/h"
same,35S incorporated into the re-synthesised aggrecans (total),[1]; IPS 1.0 μg/mL,"15,281* pg ^35S/10^6 cells/h"
same,% Total: aggrecans associated with the cells with respect to the total quantity of aggrecans,[1]; IPS 5.0 μg/mL,17.4%
same,% Total: inter-territorial matrix's aggrecans with respect to the total quantity of aggrecans,[1]; IPS 5.0 μg/mL,67.9%
same,% Total: re-synthesised aggrecans with respect to the total quantity of aggrecans,[1]; IPS 5.0 μg/mL,100%
same,"% change with respect to the non-treated control, aggrecans associated with the cells",[1]; IPS 5.0 μg/mL,14.2%
same,"% change with respect to the non-treated control, re-synthesised aggrecans (total)",[1]; IPS 5.0 μg/mL,3.0%
same,"% change with respect to the untreated control, inter-territorial matrix's aggrecans",[1]; IPS 5.0 μg/mL,8.2%
same,35S incorporated into the aggrecans associated with the cells,[1]; IPS 5.0 μg/mL,"2,041 pg ^35S/10^6 cells/h"
same,35S incorporated into the inter-territorial matrix's aggrecans,[1]; IPS 5.0 μg/mL,"8,340 pg ^35S/10^6 cells/h"
same,35S incorporated into the re-synthesised aggrecans (total),[1]; IPS 5.0 μg/mL,"12,106 pg ^35S/10^6 cells/h"
same,% Change with respect to the group treated with IL-1 (IL-1 = 100.0),[2]; [4],112.7* %
same,"Mean fluorescence intensity in the chondrocytes after labelling of aggrecan, M ± SD",[2]; [4],20.4 ± 0.2
same,% Change with respect to the group treated with IL-1 (IL-1 = 100.0),[2]; [5],147.0* %
same,"Mean fluorescence intensity in the chondrocytes after labelling of aggrecan, M ± SD",[2]; [5],26.6 ± 0.1
same,% Change with respect to the group treated with IL-1 (IL-1 = 100.0),[2]; [6],215.5* %
same,"Mean fluorescence intensity in the chondrocytes after labelling of aggrecan, M ± SD",[2]; [6],39.0 ± 0.2
same,% Change with respect to the group treated with IL-1 (IL-1 = 100.0),[2]; [7],116.2* %
same,"Mean fluorescence intensity in the chondrocytes after labelling of aggrecan, M ± SD",[2]; [7],20.8 ± 1.2
same,% Change with respect to the group treated with IL-1 (IL-1 = 100.0),[2]; [8],120.7* %
same,"Mean fluorescence intensity in the chondrocytes after labelling of aggrecan, M ± SD",[2]; [8],21.6 ± 1.1
same,% Change with respect to the group treated with IL-1 (IL-1 = 100.0),[2]; [9],139.7* %
same,"Mean fluorescence intensity in the chondrocytes after labelling of aggrecan, M ± SD",[2]; [9],25.0 ± 1.4
same,Effect on aggrecan degradation (band of aggrecan fragments labelled with antibody NITGE G1),[3],aggrecan degradation is inhibited
